# Patent publication EP0908457B1, “3-(1,2-benzisothiazol- and isoxazol-5-Y1)-2,4(1H,3H)-pyrimidinedione or thione and 3-(1,2-benzisothiazol- and isoxazol-5-y1)-4(3H)-pyrimidinone or thione herbicidal agents” (BASF AKTIENGESELLSCHAFT, priority 1997, dated 1999)
# Legend:
# [1] = system: Oryza sativa, (L.) Tebonnet; assay: Rice tolerance to post-transplant applications under flooded paddy conditions (Example 187), ORYSAT (Rice, Tebonnet); conditions: herbicidal effect rating 0-9, three to four weeks after treatment
# Sagittaria pygmaea, L. = assay: Preemergence weed control under flooded paddy conditions, SAGPY (Arrowhead (Pygmaea)); type: in vivo; conditions: preemergence weeds, flooded paddy, herbicidal effect rating 0-9, three to four weeks after treatment
# [2] = system: Cyperus serotinus, Rottb.; assay: Preemergence weed control under flooded paddy conditions, CYPSE (Flatsedge); type: in vivo; conditions: preemergence weeds, herbicidal effect rating 0-9, three to four weeks after treatment
# Cyperus iria = assay: Preemergence weed control under flooded paddy conditions, CYPIR (Rice Flatsedge); type: in vivo; conditions: preemergence weeds, flooded paddy, herbicidal effect rating 0-9, three to four weeks after treatment
# [3] = system: Echinochloa oryzoides (Ard.) Fritsch.; assay: Preemergence weed control under flooded paddy conditions, ECHORC (Watergrass (Calif.)); type: in vivo; conditions: preemergence weeds, flooded paddy, herbicidal effect rating 0-9, three to four weeks after treatment
# [4] = system: Monochoria vaginalis, Presl.; assay: Preemergence weed control under flooded paddy conditions, MOOVA (Monochoria); type: in vivo; conditions: preemergence weeds, flooded paddy, herbicidal effect rating 0-9, three to four weeks after treatment
Structure (SMILES),ORYSAT ([1]; 0.0320 kg/ha),ORYSAT ([1]; 0.0620 kg/ha),ORYSAT ([1]; 0.1250 kg/ha),ORYSAT ([1]; 0.2500 kg/ha),"SAGPY (Sagittaria pygmaea, L.; 0.0320 kg/ha)","SAGPY (Sagittaria pygmaea, L.; 0.0620 kg/ha)","SAGPY (Sagittaria pygmaea, L.; 0.1250 kg/ha)","SAGPY (Sagittaria pygmaea, L.; 0.2500 kg/ha)",CYPIR (Cyperus iria; 0.0320 kg/ha),CYPIR (Cyperus iria; 0.0620 kg/ha),CYPIR (Cyperus iria; 0.1250 kg/ha),CYPIR (Cyperus iria; 0.2500 kg/ha),ECHORC ([3]; 0.0320 kg/ha),ECHORC ([3]; 0.0620 kg/ha),ECHORC ([3]; 0.1250 kg/ha),ECHORC ([3]; 0.2500 kg/ha),MOOVA ([4]; 0.0320 kg/ha),MOOVA ([4]; 0.0620 kg/ha),MOOVA ([4]; 0.1250 kg/ha),MOOVA ([4]; 0.2500 kg/ha),also measured
"CCSC(=O)c1nsc2ccc(-n3c(=O)cc(C(F)(F)F)n(C)c3=O)cc12 [Example 422, 1,2-Benzisothiazole-3-thiocarboxylic acid, 5-[3,6-dihydro-3-methyl-2,6-dioxo-4-(trifluoromethyl)-1(2H)-pyrimidinyl]-, S-ethyl ester]",0.0,0.0,2.0,3.0,0.0,0.0,3.0,6.0,5.0,6.0,9.0,9.0,5.0,6.0,9.0,9.0,7.0,9.0,9.0,9.0,CYPSE ([2]; 0.0320 kg/ha): 0.0; CYPSE ([2]; 0.0620 kg/ha): 5.0
"CCOC(=O)c1nsc2cc(F)c(-n3c(=O)cc(C(F)(F)F)n(C)c3=O)cc12 [Example 423, 1,2-Benzisothiazole-3-carboxylic acid, 5-[3,6-dihydro-3-methyl-2,6-dioxo-4-(trifluoromethyl)-1(2H)-pyrimidinyl]-6-fluoro-, ethyl ester]",5.0,6.0,7.0,7.0,9.0,9.0,9.0,9.0,6.0,7.0,9.0,9.0,6.0,9.0,9.0,9.0,9.0,9.0,9.0,9.0,CYPSE ([2]; 0.0320 kg/ha): 9.0; CYPSE ([2]; 0.0620 kg/ha): 9.0; CYPSE ([2]; 0.1250 kg/ha): 9.0; CYPSE ([2]; 0.2500 kg/ha): 9.0
"Cc1ccc(OCC(=O)O)c(-c2noc3cc(F)c(-n4c(=O)cc(C(F)(F)F)n(C)c4=O)cc23)c1 [Example 425, Acetic acid, {{2-{5-[3,6-dihydro-3-methyl-2,6-dioxo-4-(trifluoromethyl)-1(2H)-pyrimidinyl]-6-fluoro-1,2-benzisoxazol-3-yl}-p-tolyl}oxy}-]",4.0,6.0,7.0,8.0,0.0,0.0,3.0,4.0,0.0,0.0,6.0,9.0,6.0,9.0,9.0,9.0,6.0,7.0,9.0,9.0,CYPSE ([2]; 0.0320 kg/ha): 0.0; CYPSE ([2]; 0.0620 kg/ha): 3.0; CYPSE ([2]; 0.1250 kg/ha): 3.0; CYPSE ([2]; 0.2500 kg/ha): 3.0
"Cc1ccc(OCC(=O)NS(C)(=O)=O)c(-c2noc3cc(F)c(-n4c(=O)cc(C(F)(F)F)n(C)c4=O)cc23)c1 [Example 428, Acetamide, 2-{{2-{5-[3,6-dihydro-3-methyl-2,6-dioxo-4-(trifluoromethyl)-1(2H)-pyrimidinyl]-6-fluoro-1,2-benzisoxazol-3-yl}-p-tolyl}oxy}-N-(methylsulfonyl)-]",0.0,2.0,6.0,6.0,0.0,0.0,2.0,6.0,0.0,2.0,4.0,7.0,2.0,3.0,6.0,9.0,9.0,9.0,9.0,9.0,CYPSE ([2]; 0.0320 kg/ha): 0.0; CYPSE ([2]; 0.0620 kg/ha): 0.0
"CN(c1ccc(-c2nsc3ccc(-n4c(=O)cc(C(F)(F)F)n(C)c4=O)cc23)cc1)S(C)(=O)=O [Example 430, Methanesulfonanilide, 4'-{5-[3,6-dihydro-3-methyl-2,6-dioxo-4-(trifluoromethyl)-1(2H)-pyrimidinyl]-1,2-benzisothiazol-3-yl}-N-methyl-]",3.0,2.0,4.0,3.0,–,–,6.0,7.0,2.0,6.0,7.0,6.0,5.0,5.0,7.0,9.0,9.0,9.0,9.0,9.0,CYPSE ([2]; 0.0320 kg/ha): 0.0; CYPSE ([2]; 0.0620 kg/ha): 0.0; CYPSE ([2]; 0.1250 kg/ha): 2.0; CYPSE ([2]; 0.2500 kg/ha): 7.0
"COC(=O)COc1cc2c(cc1-c1nsc3ccc(-n4c(=O)cc(C(F)(F)F)n(C)c4=O)cc13)CCC2 [Example 434, Acetic acid, {{6-{5-[3,6-dihydro-3-methyl-2,6-dioxo-4-(trifluoromethyl)-1(2H)-pyrimidinyl]-1,2-benzisothiazol-3-yl}-5-indanyl}oxy}-, methyl ester]",4.0,6.0,6.0,7.0,4.0,4.0,5.0,6.0,3.0,3.0,7.0,8.0,6.0,7.0,7.0,9.0,9.0,9.0,9.0,9.0,CYPSE ([2]; 0.0320 kg/ha): 4.0; CYPSE ([2]; 0.1250 kg/ha): 4.0; CYPSE ([2]; 0.2500 kg/ha): 7.0
"COC(=O)C(C)Oc1cc2c(cc1-c1nsc3ccc(-n4c(=O)cc(C(F)(F)F)n(C)c4=O)cc13)CCC2 (stereo not shown) [Example 435, Propionic acid, 2-{{6-{5-[3,6-dihydro-3-methyl-2,6-dioxo-4-(trifluoromethyl)-1(2H)-pyrimidinyl]-1,2-benzisothiazol-3-yl}-5-indanyl}oxy}-, methyl ester]",2.0,1.0,2.0,2.0,0.0,0.0,0.0,6.0,0.0,0.0,2.0,3.0,5.0,7.0,7.0,9.0,9.0,9.0,9.0,9.0,CYPSE ([2]; 0.0620 kg/ha): 0.0; CYPSE ([2]; 0.1250 kg/ha): 3.0; CYPSE ([2]; 0.2500 kg/ha): 2.0
